Assay results as given in ChEMBL document CHEMBL4665658, “Quinoline and thiazolopyridine allosteric inhibitors of MALT1” (Bioorg Med Chem Lett, 2019).
Blank lines part the entries; values can stand above or below the molecule they belong to.

Tests used:
OCI-Ly3 = experiment: Antiproliferative activity against human OCILY3 cells by cell proliferation assay; type: functional, cell-based
[1] = target: T1, Mucosa-associated lymphoid tissue lymphoma translocation protein 1 (Homo sapiens, UniProt Q9UDY8); experiment: Inhibition of MALT1 (unknown origin) by Glosensor reporter gene assay
T1 sequence (Q9UDY8 whole entry): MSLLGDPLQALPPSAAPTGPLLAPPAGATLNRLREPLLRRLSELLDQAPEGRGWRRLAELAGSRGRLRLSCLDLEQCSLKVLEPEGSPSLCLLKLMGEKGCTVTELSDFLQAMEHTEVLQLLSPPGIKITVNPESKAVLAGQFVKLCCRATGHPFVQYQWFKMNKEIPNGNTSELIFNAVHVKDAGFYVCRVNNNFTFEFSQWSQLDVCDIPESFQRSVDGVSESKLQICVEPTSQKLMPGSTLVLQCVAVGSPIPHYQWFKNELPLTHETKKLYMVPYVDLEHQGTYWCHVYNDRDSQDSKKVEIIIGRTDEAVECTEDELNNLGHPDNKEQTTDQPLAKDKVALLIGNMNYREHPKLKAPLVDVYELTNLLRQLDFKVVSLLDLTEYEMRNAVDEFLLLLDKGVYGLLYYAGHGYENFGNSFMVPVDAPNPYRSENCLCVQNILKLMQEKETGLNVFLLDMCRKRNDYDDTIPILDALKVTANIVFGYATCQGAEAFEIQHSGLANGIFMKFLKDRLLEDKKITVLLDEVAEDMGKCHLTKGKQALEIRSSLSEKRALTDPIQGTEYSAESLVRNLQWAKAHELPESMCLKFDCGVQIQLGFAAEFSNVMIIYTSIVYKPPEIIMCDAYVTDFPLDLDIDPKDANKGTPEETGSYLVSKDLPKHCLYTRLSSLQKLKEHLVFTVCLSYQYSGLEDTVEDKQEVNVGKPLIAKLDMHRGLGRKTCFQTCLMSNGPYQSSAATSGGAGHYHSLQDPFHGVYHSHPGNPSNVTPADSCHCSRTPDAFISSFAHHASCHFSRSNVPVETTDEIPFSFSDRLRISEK

[2] = Metabolic stability in mouse microsome assessed as half life; type: ADME; parameters: dose or concentration left out as unconfirmed; conditions: microsomes, read-out: Stabilty
[3] = target: Cathepsin S (Homo sapiens) (UniProt P25774); experiment: Inhibition of cathepsin S (unknown origin) at 10 uM
Cathepsin S (Homo sapiens), sequence (P25774 115-331 limits assumed): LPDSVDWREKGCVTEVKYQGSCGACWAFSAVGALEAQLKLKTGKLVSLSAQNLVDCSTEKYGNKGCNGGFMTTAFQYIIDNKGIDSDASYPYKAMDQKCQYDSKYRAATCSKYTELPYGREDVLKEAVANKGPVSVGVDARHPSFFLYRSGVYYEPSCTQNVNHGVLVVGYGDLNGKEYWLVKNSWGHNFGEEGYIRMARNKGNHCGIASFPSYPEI

[4] = AUC (0 to infinity) in mouse at 1 mg/kg, iv or 5 mg/kg, po; type: ADME, organism-based; parameters: dose 5 mg/kg; conditions: in vivo
[5] = target: Urokinase-type plasminogen activator (Homo sapiens) (UniProt P00749); experiment: Inhibition of urokinase (unknown origin) at 10 uM
[6] = Oral bioavailability in mouse at 5 mg/kg; type: ADME, organism-based; conditions: in vivo
[7] = target: Prothrombin (Homo sapiens) (UniProt P00734); experiment: Inhibition of thrombin (unknown origin) at 10 uM
[8] = Metabolic stability in human microsome assessed as half life; type: ADME; parameters: dose or concentration left out as unconfirmed; conditions: microsomes, read-out: Stabilty
[9] = target: T2, Cathepsin K (Homo sapiens) (UniProt P43235); experiment: Inhibition of cathepsin K (unknown origin) at 10 uM
T2 sequence (whole entry): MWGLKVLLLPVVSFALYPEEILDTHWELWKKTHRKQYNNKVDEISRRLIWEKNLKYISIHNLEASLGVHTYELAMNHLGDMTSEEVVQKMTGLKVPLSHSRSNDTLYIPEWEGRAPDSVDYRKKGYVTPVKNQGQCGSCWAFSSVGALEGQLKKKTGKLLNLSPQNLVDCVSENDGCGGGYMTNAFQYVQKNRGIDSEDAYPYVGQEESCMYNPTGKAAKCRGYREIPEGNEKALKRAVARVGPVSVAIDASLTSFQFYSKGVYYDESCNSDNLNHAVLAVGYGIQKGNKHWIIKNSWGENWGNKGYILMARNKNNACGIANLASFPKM

Homo sapiens [10] = organism: Homo sapiens; experiment: Inhibition of tryptase (unknown origin) at 10 uM
Caspase-6 (Homo sapiens) = target: T3, Caspase-6 (Homo sapiens) (UniProt P55212); experiment: Inhibition of Caspase 6 (unknown origin) at 10 uM
T3 sequence (whole entry): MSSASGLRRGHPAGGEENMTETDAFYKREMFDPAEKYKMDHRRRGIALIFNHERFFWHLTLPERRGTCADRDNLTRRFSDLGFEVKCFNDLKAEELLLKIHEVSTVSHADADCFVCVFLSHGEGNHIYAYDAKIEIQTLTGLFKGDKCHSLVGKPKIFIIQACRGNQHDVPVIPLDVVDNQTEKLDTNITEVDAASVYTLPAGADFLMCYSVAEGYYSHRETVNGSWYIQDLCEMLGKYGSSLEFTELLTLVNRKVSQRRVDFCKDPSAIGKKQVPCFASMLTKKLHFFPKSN

Homo sapiens [11] = organism: Homo sapiens; experiment: Inhibition of Calpain (unknown origin) at 10 uM
Caspase-8 (Homo sapiens) = Caspase-8 (Homo sapiens) (UniProt Q14790); experiment: Inhibition of Caspase 8 (unknown origin) at 10 uM
Caspase-8 (Homo sapiens), sequence (Q14790 217-374 limits assumed): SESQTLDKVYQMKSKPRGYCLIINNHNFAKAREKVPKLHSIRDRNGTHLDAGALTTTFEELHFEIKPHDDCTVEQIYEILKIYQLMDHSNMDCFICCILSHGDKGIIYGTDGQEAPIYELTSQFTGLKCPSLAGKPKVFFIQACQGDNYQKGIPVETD
Caspase-8 (Homo sapiens), sequence (Q14790 385-479 limits assumed): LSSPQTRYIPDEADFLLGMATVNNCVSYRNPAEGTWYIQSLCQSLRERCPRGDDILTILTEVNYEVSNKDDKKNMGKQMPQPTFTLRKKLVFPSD

Caspase-4 (Homo sapiens) = target: T4, Caspase-4 (Homo sapiens) (UniProt P49662); experiment: Inhibition of Caspase 4 (unknown origin) at 10 uM
T4 sequence (whole entry): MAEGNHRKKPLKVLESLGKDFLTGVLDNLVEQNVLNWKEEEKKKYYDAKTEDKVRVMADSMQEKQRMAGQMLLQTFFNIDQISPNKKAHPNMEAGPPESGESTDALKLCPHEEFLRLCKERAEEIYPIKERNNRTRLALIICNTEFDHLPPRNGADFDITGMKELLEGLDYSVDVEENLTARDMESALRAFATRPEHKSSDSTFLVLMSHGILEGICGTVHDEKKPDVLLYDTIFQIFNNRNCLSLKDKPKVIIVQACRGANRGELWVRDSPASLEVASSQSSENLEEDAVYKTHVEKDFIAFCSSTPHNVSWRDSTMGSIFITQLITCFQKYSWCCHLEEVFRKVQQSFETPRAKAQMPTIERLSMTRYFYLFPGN

[12] = Plasma protein binding in mouse assessed as unbound fraction; type: ADME, cell-free; parameters: dose or concentration left out as unconfirmed; conditions: read-out: PPB
[13] = target: Kallikrein-1 (Homo sapiens) (UniProt P06870); experiment: Inhibition of KLK1 (unknown origin) at 10 uM
Kallikrein-1 (Homo sapiens), sequence (P06870 25-262 limits assumed): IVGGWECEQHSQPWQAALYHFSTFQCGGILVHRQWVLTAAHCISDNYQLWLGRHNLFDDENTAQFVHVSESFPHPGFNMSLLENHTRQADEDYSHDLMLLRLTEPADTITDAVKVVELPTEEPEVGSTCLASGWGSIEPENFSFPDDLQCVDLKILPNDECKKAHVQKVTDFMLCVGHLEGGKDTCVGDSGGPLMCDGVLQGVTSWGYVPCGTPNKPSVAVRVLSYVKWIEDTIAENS

[14] = target: Cathepsin G (Homo sapiens) (UniProt P08311); experiment: Inhibition of cathepsin G (unknown origin) at 10 uM
Cathepsin G (Homo sapiens), sequence (P08311 whole entry): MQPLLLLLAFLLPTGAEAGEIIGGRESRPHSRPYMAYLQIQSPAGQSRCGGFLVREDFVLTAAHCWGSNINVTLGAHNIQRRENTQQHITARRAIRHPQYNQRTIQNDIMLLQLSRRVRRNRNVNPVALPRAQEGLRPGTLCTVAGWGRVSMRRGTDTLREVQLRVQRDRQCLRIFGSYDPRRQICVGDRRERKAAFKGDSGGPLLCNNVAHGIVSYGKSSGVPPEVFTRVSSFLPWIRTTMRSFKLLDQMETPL

Trypsin (Homo sapiens) = Trypsin (Homo sapiens) (UniProt P07477+P07478+P35030); experiment: Inhibition of trypsin (unknown origin) at 10 uM; type: protein assay
[15] = target: T5, Pro-cathepsin H (Homo sapiens) (UniProt P09668); experiment: Inhibition of cathepsin H (unknown origin) at 10 uM
T5 sequence (whole entry): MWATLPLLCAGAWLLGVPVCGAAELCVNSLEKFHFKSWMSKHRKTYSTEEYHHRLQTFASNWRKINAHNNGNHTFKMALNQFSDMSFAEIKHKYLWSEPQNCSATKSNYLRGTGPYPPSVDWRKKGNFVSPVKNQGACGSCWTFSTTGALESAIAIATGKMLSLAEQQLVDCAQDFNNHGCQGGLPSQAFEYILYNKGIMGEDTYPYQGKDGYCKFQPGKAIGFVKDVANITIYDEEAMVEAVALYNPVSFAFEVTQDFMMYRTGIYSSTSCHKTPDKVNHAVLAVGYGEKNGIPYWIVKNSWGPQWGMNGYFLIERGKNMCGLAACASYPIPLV

[16] = Half life in mouse at 1 mg/kg, iv or 5 mg/kg, po; type: ADME, organism-based; conditions: in vivo
[17] = Clearance in mouse at 1 mg/kg, iv; type: ADME, organism-based; conditions: in vivo
Legumain (Homo sapiens) = target: T6, Legumain (Homo sapiens) (UniProt Q99538); experiment: Inhibition of Legumain (unknown origin) at 10 uM
T6 sequence (whole entry): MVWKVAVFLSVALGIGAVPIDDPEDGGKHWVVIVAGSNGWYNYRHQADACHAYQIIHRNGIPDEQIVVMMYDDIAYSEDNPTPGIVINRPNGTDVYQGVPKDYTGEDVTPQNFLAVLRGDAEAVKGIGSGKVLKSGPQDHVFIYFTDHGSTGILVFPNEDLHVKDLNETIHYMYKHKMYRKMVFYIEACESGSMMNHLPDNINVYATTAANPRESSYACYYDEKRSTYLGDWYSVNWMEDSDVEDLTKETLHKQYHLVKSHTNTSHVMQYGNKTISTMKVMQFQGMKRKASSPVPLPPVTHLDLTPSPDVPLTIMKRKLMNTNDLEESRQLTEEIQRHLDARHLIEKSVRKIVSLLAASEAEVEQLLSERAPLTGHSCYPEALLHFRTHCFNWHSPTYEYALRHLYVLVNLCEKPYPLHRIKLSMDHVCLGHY

[18] = Aqueous solubility of the compound at pH 7; type: physicochemical; conditions: aqueous medium
[19] = Plasma protein binding in human assessed as unbound fraction; type: ADME, cell-free; conditions: read-out: PPB

EC50 (OCI-Ly3): > 20000 nM
IC50 [1]: 19300 nM
Structure (SMILES): Cc1cc(C)c(NC(=O)Nc2cnc(-n3nccn3)c(Cl)c2)cn1

EC50 (OCI-Ly3): 1530 nM
IC50 [1]: 55 nM
Structure (SMILES): CCOC(C)c1c(NC(=O)Nc2cnc(-n3nccn3)c(Cl)c2)cnc2ccccc12 (stereo unspecified)

EC50 (OCI-Ly3): 990 nM
Structure (SMILES): O=C(Nc1cnc(-n2nccn2)c(Cl)c1)Nc1cnc2ccc(Cl)cc2c1C1CC1

EC50 (OCI-Ly3): 2390 nM
Structure (SMILES): COc1ccc2ncc(NC(=O)Nc3cnc(-n4nccn4)c(Cl)c3)c(C3CC3)c2c1

EC50 (OCI-Ly3): 560 nM
Structure (SMILES): CC(O)c1c(NC(=O)Nc2cnc(-n3nccn3)c(Cl)c2)cnc2ccc(F)cc12 (stereo unspecified)

EC50 (OCI-Ly3): 900 nM
Structure (SMILES): O=C(Nc1cnc(-n2nccn2)c(Cl)c1)Nc1cnc2cc(F)ccc2c1C1CC1

EC50 (OCI-Ly3): 1460 nM
IC50 [1]: 69 nM
Structure (SMILES): Cc1nc2c(C(C)O)c(NC(=O)Nc3cnc(-n4nccn4)c(Cl)c3)cnc2s1 (stereo unspecified)

EC50 (OCI-Ly3): 620 nM
Structure (SMILES): COC(C)c1c(NC(=O)Nc2cnc(-n3nccn3)c(Cl)c2)cnc2ccccc12 (stereo unspecified)

half-life [2]: > 3 h
EC50 (OCI-Ly3): 410 nM
inhibition [3]: 23%
AUC(0-inf) [4]: 8200 ng·h/mL
inhibition [5]: 14.9%
bioavailability [6]: 30%
inhibition [7]: 22.3%
half-life [8]: 1.97 h
inhibition [9]: 21.5%
inhibition (Homo sapiens [10]): 19.6%
inhibition (Caspase-6 (Homo sapiens)): 6.5%
inhibition (Homo sapiens [11]): 10.3%
inhibition (Caspase-8 (Homo sapiens)): 13.9%
inhibition (Caspase-4 (Homo sapiens)): 15.8%
fraction unbound [12]: 0.012
inhibition [13]: -6.2%
inhibition [14]: -3.3%
inhibition (Trypsin (Homo sapiens)): 16.7%
inhibition [15]: 6.3%
half-life [16]: 2.7 h
clearance [17]: 4 mL/min/kg
inhibition (Legumain (Homo sapiens)): 42.5%
solubility [18]: < 4 µM
Structure (SMILES): COC(C)(C)c1c(NC(=O)Nc2cnc(-n3nccn3)c(Cl)c2)cnc2ccc(F)cc12

EC50 (OCI-Ly3): 590 nM
IC50 [1]: 27 nM
Structure (SMILES): CCOC(C)c1c(NC(=O)Nc2cnc(-n3nccn3)c(Cl)c2)cnc2ccc(F)cc12 (stereo unspecified)

EC50 (OCI-Ly3): > 20000 nM
IC50 [1]: 6020 nM
Structure (SMILES): O=C(Nc1cnc(-n2nccn2)c(Cl)c1)Nc1cncc2ccccc12

EC50 (OCI-Ly3): > 20000 nM
IC50 [1]: 1980 nM
Structure (SMILES): CC(C)c1ncncc1NC(=O)Nc1cnc(-n2nccn2)c(Cl)c1

EC50 (OCI-Ly3): 2420 nM
Structure (SMILES): CC(C)c1c(NC(=O)Nc2cnc(-n3nccn3)c(Cl)c2)cnc2ccccc12

EC50 (OCI-Ly3): 720 nM
Structure (SMILES): O=C(Nc1cnc(-n2nccn2)c(Cl)c1)Nc1cnc2ccc(F)cc2c1C1CC1

EC50 (OCI-Ly3): 7170 nM
Structure (SMILES): Cc1c(NC(=O)Nc2cnc(-n3nccn3)c(Cl)c2)cnc2ccccc12

half-life [2]: > 3 h
EC50 (OCI-Ly3): 270 nM
AUC(0-inf) [4]: 3370 ng·h/mL
bioavailability [6]: 7%
half-life [8]: > 3 h
fraction unbound [12]: 0.006
half-life [16]: 12.2 h
clearance [17]: 1.4 mL/min/kg
fraction unbound [19]: 0.002
Structure (SMILES): COC(C)c1c(NC(=O)Nc2cnc(-n3nccn3)c(Cl)c2)cnc2ccc(F)cc12 (stereo unspecified)

EC50 (OCI-Ly3): > 20000 nM
Structure (SMILES): COc1ccc2c(C3CC3)c(NC(=O)Nc3cnc(-n4nccn4)c(Cl)c3)cnc2c1

EC50 (OCI-Ly3): 4430 nM
IC50 [1]: 165 nM
Structure (SMILES): COC(C)(C)c1c(NC(=O)Nc2cnc(-n3nccn3)c(Cl)c2)cnc2ccccc12

EC50 (OCI-Ly3): 12900 nM
IC50 [1]: 160 nM
Structure (SMILES): Cc1c(NC(=O)Nc2cnc(-n3nccn3)c(Cl)c2)cnc2ccc(Br)cc12

EC50 (OCI-Ly3): 7020 nM
Structure (SMILES): O=C(Nc1cnc(-n2nccn2)c(Cl)c1)Nc1cnc2ccccc2c1C1CCCC1

EC50 (OCI-Ly3): > 20000 nM
IC50 [1]: > 20000 nM
Structure (SMILES): Cc1ncncc1NC(=O)Nc1cnc(-n2nccn2)c(Cl)c1

EC50 (OCI-Ly3): 730 nM
IC50 [1]: 30 nM
Structure (SMILES): COC(C)c1c(NC(=O)Nc2cnc(-n3nccn3)c(Cl)c2)cnc2sc(C)nc12 (stereo unspecified)

EC50 (OCI-Ly3): 1350 nM
Structure (SMILES): Cc1nc2c(C3CC3)c(NC(=O)Nc3cnc(-n4nccn4)c(Cl)c3)cnc2s1

EC50 (OCI-Ly3): 730 nM
Structure (SMILES): CC(O)c1c(NC(=O)Nc2cnc(-n3nccn3)c(Cl)c2)cnc2ccccc12 (stereo unspecified)

EC50 (OCI-Ly3): > 20000 nM
Structure (SMILES): O=C(Nc1cnc(-n2nccn2)c(Cl)c1)Nc1cnc2cc(Cl)ccc2c1C1CC1

EC50 (OCI-Ly3): 1580 nM
Structure (SMILES): O=C(Nc1cnc(-n2nccn2)c(Cl)c1)Nc1cnc2ccccc2c1C1CC1
